Results taken from US20090170803A1, “[…] OF […]” (priority 2002, published 2009).
Entries after “also recorded” stand apart in the source; their conditions may differ.

What was measured:
human PMNL = test: Preliminary in vitro studies: effects of A2AAR agonists on phagocytic cells (human PMNL); assay type: cell-based
human monocytes = test: Inhibition of LPS-stimulated human monocyte TNF production; assay type: cell-based
C57BL/6 mice = test: Murine model of endotoxin-induced septic shock (E. coli 026:B6 LPS), mortality; assay type: in vivo; parameters: protection of mice from E. Coli 026:B6 LPS-induced endotoxemia, dose response (FIG. 1): dose or concentration left out as unconfirmed
A2A-KO mice = test: Murine septic shock model in A2A-KO mice; assay type: in vivo; settings: 5 μg/kg, four doses at six hour intervals beginning 12 hours after LPS 12.5 mg/kg
E. Coli = test: Mice injected with live E. Coli and treated with ceftriaxone, survival; assay type: in vivo; settings: 20 million E. Coli IP at time 0; ceftriaxone once at time 0; 50 μg/kg ATL146e 8 times at 6 hour intervals
IL-6 = test system: IL-6; parameters: species or system C57BL/6 mice; settings: mouse, in vivo, ip
RANTES = test system: RANTES; parameters: species or system C57BL/6 mice; settings: mouse, in vivo
neutrophils in kidneys = test system: neutrophils in kidneys; parameters: species or system C57BL/6 mice; settings: mouse, in vivo, ip

Compound: Nc1nc(NCCc2ccc(O)cc2)nc2nc(-c3ccco3)nn12 [ZM241385, reference compound]
- block by A2AAR antagonist of the agonist effect on TNF-stimulated superoxide release (human PMNL; adherent PMNLs, with A2AAR agonists): completely blocked
- reversal of the inhibition of monocyte TNF production by A2AAR antagonist (human monocytes; with ATL146e): reversed
- protective efficacy of ATL146e when ZM is co-administered (FIG. 4) (C57BL/6 mice; ZM in equimolar concentrations (3 μg/kg) with ATL146e, six hour intervals for 24 hours beginning 12 hours after LPS): nearly eliminated
- protection from death by antagonist alone (FIG. 4) (C57BL/6 mice; six hour intervals for 24 hours beginning 12 hours after LPS challenge): does not protect

Compound: CCNC(=O)[C@H]1O[C@@H](n2cnc3c(N)nc(C#CCC4CCC(COC(C)=O)CC4)nc32)C(O)C1O (stereo in doubt) [ATL193, Acetic acid 4-{3-[6-amino-9-(5-ethylcarbamoyl-3,4-dihydroxytetrahydrofuran-2-yl)-9H-purin-2-yl]-prop-2-ynyl}-cyclohexylmethyl Ester]
- effects on phagocytic cells in vitro and in animal models of acute inflammation (human PMNL): potent agonists and provide anti-inflammatory responses

Compound: CCNC(=O)[C@H]1O[C@@H](n2cnc3c(N)nc(C#CCC4CCC(C(=O)OC)CC4)nc32)C(O)C1O (stereo in doubt) [ATL146e, 4-{3-[6-Amino-9-(5-ethylcarbamoyl-3,4-dihydroxy-tetrahydro-furan-2-yl)-9H-purin-2-yl]-prop-2-ynyl}cyclohexanecarboxylic acid methyl ester]
- effects on phagocytic cells in vitro and in animal models of acute inflammation (human PMNL): potent agonists and provide anti-inflammatory responses
- inhibition of LPS-stimulated human monocyte TNF production, potency comparison (human monocytes): more potent than CGS21680
- protection from death (FIG. 2) (C57BL/6 mice; 5 μg/kg i.p. at 6-hour intervals for 24 hours beginning simultaneously with LPS 12.5 mg/kg, p=0.0002): protection from death
- protection from death after a delay in the onset of therapy (FIG. 3) (C57BL/6 mice; 5 μg/kg i.p. at six hour intervals, four doses, delay of 24 hours following LPS challenge (12.5 mg/kg)): protection from death
- protection of mice from E. Coli 026:B6 LPS-induced endotoxemia, dose response (FIG. 1) (C57BL/6 mice; IP one hour prior to LPS and at 6 hour intervals, 8 doses/48 hours): dose dependent response
- protection at the highest dosages (C57BL/6 mice; highest dosages, LPS 12.5 mg/kg): complete protection
- survival at 4 days (C57BL/6 mice; highest doses, vehicle mortality 75%): 100%
- protective effect in A2A-KO mice relative to wild type (A2A-KO mice): less protection; also recorded: completely lost
- survival of mice injected with live E. Coli and treated with ceftriaxone, compared to antibiotic alone (FIG. 6) (E. Coli): increases survival
- renal IL-6 levels, relative to those from mice exposed to LPS/Stx2 (FIG. 7) (IL-6): approximately 16%
- chemokine Renal RANTES in kidney samples (FIG. 8) (RANTES): reduction

Compound: Rolipram [reference compound]
- accentuation of the A2AAR agonist effects on activation of PMNLs (human PMNL; with A2AAR agonists): synergistically accentuates

Compound: CCNC(=O)[C@H]1O[C@@H](n2cnc3c(N)nc(C#C[C@]4(O)CCC[C@@H](C)C4)nc32)C(O)C1O (stereo in doubt) [ATL-203, 5-[6-Amino-2-(1-hydroxy-3-methylcyclohexylethynyl)purin-9-yl]-3,4-dihydroxytetrahydrofuran-2-carboxylic acid ethylamide]
- renal IL-6 levels, relative to those from mice exposed to LPS/Stx2 (FIG. 7) (IL-6): approximately 16%
- chemokine Renal RANTES in kidney samples (FIG. 8) (RANTES): reduction
- neutrophil positive glomeruli, relative to the Stx2 positive samples (FIG. 9) (neutrophils in kidneys): 40%
